Test results: paper PMC7044277 (Nature Communications, 2020)
“And” between values parts separate entries of the source, which are not always exact repeats. Equal entries are not always repeated.

Tests used:
320 non-olfactory GPCRs = biological target: T1, 320 non-olfactory GPCRs (Homo sapiens, UniProt P21731); assay type: cell-based; parameters: GPCRome screening signal at PTGIR / GPCRome screening signal at PTH1R / GPCRome screening signal at PTH2R / GPCRome screening signal at QRFP / GPCRome screening signal at RXFP2 / GPCRome screening signal at RXFP3 / GPCRome screening signal at RXFP4 / GPCRome screening signal at S1PR2 / GPCRome screening signal at S1PR3 / GPCRome screening signal at S1PR4 / GPCRome screening signal at S1PR5 / GPCRome screening signal at SCTR / GPCRome screening signal at SSTR2 / GPCRome screening signal at SSSTR / GPCRome screening signal at SSTR4 / GPCRome screening signal at SSTR5 / GPCRome screening signal at SUCNR1 / GPCRome screening signal at TA1 / GPCRome screening signal at TAAR2 / GPCRome screening signal at TAAR5 / GPCRome screening signal at TAAR6 / GPCRome screening signal at TAAR8 / GPCRome screening signal at TACR1 / GPCRome screening signal at TACR2 / GPCRome screening signal at TACR3 / GPCRome screening signal at TBXA2R / GPCRome screening signal at TSHR / GPCRome screening signal at UTS2R / GPCRome screening signal at VIPR2 / GPCRome screening signal at GPR68 no V2 Tail / GPCRome screening signal at GRM2 / GPCRome screening signal at GRM3: reference not given here; conditions: receptor TBXA2R;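 for GPCRome agonism screen response: fold over basal response of each receptor without drug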
T1 construct: expressed in transfected cells; host or cells: HTLA cells

DRD3 F1063.28A = DRD3 F1063.28A (Homo sapiens, UniProt P35462, F106A); experiment: biochemical; assay type: binding
DRD4 (D4.4 variant) = biological target: T2, DRD4 (D4.4 variant) (Homo sapiens, UniProt P21917); experiment: Gαi/o-mediated cAMP inhibition (GloSensor); assay type: cell-based; conditions: DRD4; agonist, cAMP inhibition; read-out: EC50 ± SEM
T2 sequence (P21917 1-419): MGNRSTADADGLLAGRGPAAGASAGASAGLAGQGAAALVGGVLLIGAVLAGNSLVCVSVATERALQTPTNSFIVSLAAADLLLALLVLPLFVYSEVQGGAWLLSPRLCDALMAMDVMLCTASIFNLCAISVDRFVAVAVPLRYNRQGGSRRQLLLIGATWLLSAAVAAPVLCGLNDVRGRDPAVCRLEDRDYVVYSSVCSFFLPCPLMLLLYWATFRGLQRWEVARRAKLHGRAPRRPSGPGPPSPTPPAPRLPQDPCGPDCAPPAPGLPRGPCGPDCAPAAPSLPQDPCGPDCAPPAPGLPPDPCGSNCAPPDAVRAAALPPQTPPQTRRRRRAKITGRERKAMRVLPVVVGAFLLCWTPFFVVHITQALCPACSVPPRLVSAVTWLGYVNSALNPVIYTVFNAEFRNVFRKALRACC

DRD2 F1103.28L = biological target: T3, DRD2 F1103.28L (Homo sapiens, UniProt P14416, F110L); experiment: Gαi/o-mediated cAMP inhibition (GloSensor), mutant; assay type: cell-based
T3 construct: expressed in transfected cells; host or cells: HEK293T (ATCC CRL-11268)

DRD2 F1103.28A = DRD2 F1103.28A (Homo sapiens, UniProt P14416, F110A); experiment: β-arrestin2 recruitment (Tango), mutant; assay type: cell-based; parameters: expressed in transfected cells; host or cells: HEK293T (ATCC CRL-11268)
Chain of DRD2 F1103.28A (P14416 whole entry F110A): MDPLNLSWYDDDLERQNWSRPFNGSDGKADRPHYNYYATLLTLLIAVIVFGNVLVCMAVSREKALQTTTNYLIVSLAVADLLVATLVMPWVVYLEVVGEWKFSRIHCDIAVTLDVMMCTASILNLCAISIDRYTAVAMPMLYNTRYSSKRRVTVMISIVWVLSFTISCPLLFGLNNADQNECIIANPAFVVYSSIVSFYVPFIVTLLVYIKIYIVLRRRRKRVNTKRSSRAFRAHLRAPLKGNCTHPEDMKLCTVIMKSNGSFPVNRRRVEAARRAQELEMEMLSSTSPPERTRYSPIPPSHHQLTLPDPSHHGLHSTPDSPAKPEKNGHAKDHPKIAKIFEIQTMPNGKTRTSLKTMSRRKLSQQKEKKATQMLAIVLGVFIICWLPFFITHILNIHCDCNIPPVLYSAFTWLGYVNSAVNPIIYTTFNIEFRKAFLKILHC

T1 sequence (P21731 whole entry): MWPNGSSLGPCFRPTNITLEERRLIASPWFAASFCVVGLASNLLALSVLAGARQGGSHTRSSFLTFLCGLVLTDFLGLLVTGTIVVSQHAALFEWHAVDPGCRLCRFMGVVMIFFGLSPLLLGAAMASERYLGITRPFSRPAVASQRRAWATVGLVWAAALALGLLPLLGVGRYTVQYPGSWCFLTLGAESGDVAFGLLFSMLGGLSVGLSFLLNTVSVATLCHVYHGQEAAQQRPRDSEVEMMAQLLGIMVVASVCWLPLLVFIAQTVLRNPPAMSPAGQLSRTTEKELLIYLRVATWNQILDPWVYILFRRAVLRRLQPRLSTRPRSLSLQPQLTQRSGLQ
Chain of DRD3 F1063.28A (P35462 whole entry F106A): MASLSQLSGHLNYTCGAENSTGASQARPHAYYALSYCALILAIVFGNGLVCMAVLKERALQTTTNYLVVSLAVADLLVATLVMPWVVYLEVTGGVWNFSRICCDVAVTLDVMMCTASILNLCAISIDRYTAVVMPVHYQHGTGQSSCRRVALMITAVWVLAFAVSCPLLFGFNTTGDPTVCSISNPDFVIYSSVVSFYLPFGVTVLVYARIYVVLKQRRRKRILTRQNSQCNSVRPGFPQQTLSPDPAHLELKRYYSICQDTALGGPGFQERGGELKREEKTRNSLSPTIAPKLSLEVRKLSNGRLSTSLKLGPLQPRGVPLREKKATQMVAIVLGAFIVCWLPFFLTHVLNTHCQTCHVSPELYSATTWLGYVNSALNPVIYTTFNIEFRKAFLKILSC
T3 sequence (P14416 whole entry F110L): as the sequence (P14416 whole entry F110A) above, with A110L counted along it

With CCOc1ccccc1CCC(C)NCC1(O)CCCCC1.Cl (racemic) [Fig_5f] as the molecule, how does the “GPCRome screening signal at TBXA2R” value (320 non-olfactory GPCRs; Fig_5f, single replicate values) read?
Its value is 1.076 and 0.505 and 0.6523 and 0.5698.

For CCOc1cccc2cc(C(C)NCC3(O)CCCCC3)oc12 (centres unmarked) [O4LE6], which Ki (DRD3 F1063.28A) is on record?
Its Ki is 460 nM.

What about the “affinity decreased, mutant vs wild type” value (DRD3 F1063.28A; DRD3 Phe106^3.28Ala vs wild-type DRD3) of the same molecule?
Its value is 2.09 fold.

What about the EC50 (DRD4 (D4.4 variant)) of the same molecule?
Its EC50 is > 10000 nM.

What about the EC50 (DRD2 F1103.28L; DRD2 F1103.28L (b138 head prints DRD2 F1063.28L)) of the same molecule?
Its EC50 is 11.3 ± 2.27 nM.

What about the Emax (DRD2 F1103.28L; read-out: Emax relative to quinpirole response, DRD2 F1103.28L) of the same molecule?
The Emax was 61%.

And the “GPCRome agonism screen response” value (320 non-olfactory GPCRs; replicate values, Fig_4g)?
The value was 0.6818 and 0.496 and 0.4453 and 0.576.

And the EC50 (DRD2 F1103.28A)?
The EC50 was > 10000 nM.
